Source: patent US20130324543A1, “REVERSAL OF HIGH BREAST CANCER RISK IN MAMMALS EXPOSED TO ESTROGENIC CHEMICALS IN UTERO BY ADULT EXPOSURE TO HDAC AND DNMT INHIBITORS” (Georgetown University, priority 2012, published 2013)

Experiments:
mammary tumors = assay: DMBA-induced mammary tumorigenesis in F1-F3 offspring of rat dams fed HF or EE2 diet; type: in vivo, Sprague-Dawley rats
Protocol: Pregnant Sprague-Dawley rats (F0) were fed AI[…] control diet or an isocaloric AI[…] based HF diet, containing 43% energy from corn oil, throughout gestation. Another group of pregnant rats was fed AI[…] diet supplemented with 0.1 ppm ethinyl estradiol (EE2) from day 14 to day 20 of pregnancy. F1 females were mated with F1 males from the same group to produce the F2 generation. The F3 generation was produced in the same manner (FIG. 23). No sibling mating was carried out. […] AI[…] control diet (control, 17% energy from corn oil), isocaloric high fat diet (HF, 43% energy from corn oil) or ethinyl estradiol-supplemented AI[…] diet (EE2, 0.1 ppm). The HF diet was fed for dams through the duration of pregnancy (P) (21 days), while dams were fed EE2 supplemented diet between days P14-20. Once pups (F1) were born, all dams received the control diet. F1 and F2 females (n=8-10) were mated on PND 60 with males from the same group to produce the F2 and F3 generations. All F1 and F2 pregnant dams were fed control diet for the extent of pregnancy. Outcross experiments were also performed: F1 females or males exposed to EE2 or HF diet in utero were crossed with control males or females. […] Tumorigenesis (incidence and multiplicity) was monitored for 20 weeks. […] Louis, Mo.) in 1 ml of peanut oil. […] Tumor growth was measured using a caliper and the length, width, and height of each tumor were recorded. […] Differences in tumor latency and multiplicity were tested by t-test (or Mann-Whitney Rank Sum test) or one-way ANOVA (where appropriate, between groups comparisons after ANOVA were done using Dunn's multi-comparison procedure). Kaplan-Meier survival curves were used to compare differences in tumor incidence, followed by the log-rank test Tumor histopathology was analyzed.

mammary glands = assay: Cell proliferation (Ki-67 immunohistochemistry) in PND50 mammary glands; type: in vivo, Sprague Dawley rats
Protocol: To determine whether the increase in DNA adduct formation may reflect increased cell proliferation, expression of Ki-67, a marker of cell proliferation, was assessed on PND50 mammary glands using immunohistochemistry. The ki-67 status of each sample was evaluated according to a modified version of the scoring system proposed by Allred et al. The total score for each sample was calculated as the sum of the estimated proportion of positive-staining cells ([…]) plus the estimated intensity of positive-staining cells (0-4).

DNA adducts = assay: MDA-DNA adduct levels in mammary glands of F1-F3 rat offspring; type: in vivo, Sprague Dawley rats; conditions: F1-F3 generation offspring
[1] = F1 generation (daughters) vs controls
[2] = F2 generation (granddaughters) vs controls
[3] = F3 generation (great-granddaughters) vs controls

**Q.** What does the source list for `C#C[C@]1(O)CC[C@H]2[C@@H]3CCc4cc(O)ccc4[C@H]3CC[C@@]21C` [EE2, ethinyl estradiol]?
**A.** Mammary tumor incidence (mammary tumors; [1]): higher; mammary tumor multiplicity (mammary tumors; [1]): higher; Mammary tumor incidence (mammary tumors; [2]): neither tumor incidence (p=0.68) nor multiplicity (p=0.49) was statistically different; mammary tumor multiplicity (mammary tumors; [2]): neither tumor incidence (p=0.68) nor multiplicity (p=0.49) was statistically different; tumor multiplicity (mammary tumors; F2 outcross EE2♀×C♂ vs controls): significantly higher; Mammary tumor incidence (mammary tumors; F2 outcross, control ♀ x exposed ♂): 33%; Mammary tumor incidence (mammary tumors; F2 outcross, exposed ♀ x control ♂): 62%; Mammary tumor incidence (mammary tumors; [3]): also higher, but not statistically significant; mammary tumor multiplicity (mammary tumors; [3]): significantly higher; cell proliferation by ki-67 (mammary glands; F1 generation): non-significantly increased; cell proliferation by ki-67 (mammary glands; F2 generation, compared to the controls): significantly lower; DNA adduct formation by measuring MDA levels (DNA adducts): mimicked the findings of changes in CYP1B1 expression
